Data reported in article PMC5078989, “Targeted inhibition of the COP9 signalosome for treatment of cancer” (Nature Communications, 2016).

Experiments:
RPN11 (26S proteasome) = target: T1, RPN11 (26S proteasome) (Homo sapiens, UniProt O00487); assay: Selectivity assay RPN11 (26S proteasome); type: biochemical; conditions: JAMM domain protease
T1 construct: purchased LifeSensors PS026
Procedure: All biochemical assays were performed at room temperature in 384-well plates in a total volume of 25.25 μl per well. Test compounds were dissolved in 90% (v/v) DMSO/water. For the assays, 250 nl of compound solution was added per well, followed by addition of 12.5 μl protease solution. After 70 min of pre-incubation at room temperature, the reactions were started by addition of 12.5 μl substrate solution and followed either by measuring fluorescence intensity (rhodamine 110-based substrates) or by fluorescence lifetime (PT14-based substrates). The effect of compound on enzymatic activity was obtained from the linear part of the progress curves and determined after 1 h (t=60 min). The final compound concentrations ranged from 100 μM to 1 nM.
RPN11 (26S proteasome). Enzyme purchased from LifeSensors (catalogue number PS026); substrate: K48-linked tetra-ubiquitin chain coupled to a rhodamine 110 fluorophore purchased from LifeSensors (catalogue number NO13–158.01); enzyme concentration: 0.75 nM; substrate concentration: 100 nM; assay buffer: 20 mM Hepes at pH 7.4, 150 mM NaCl, 0.02% Tween-20, 0.5 mM TCEP, 0.05 mM MgCl2, 1 mM ATP and 2 μM ubiquitin aldehyde.

HCT116 cells = assay: Cell viability assay (CellTiter-Glo), HCT116; type: cell-based, human; conditions: HCT116, 72 h; cytotoxic
Procedure: (§1) Cells were maintained in a humidified incubator at 37 °C and 5% CO2. […] All cells were negatively tested for mycoplasma contamination either by the vendor or in house. […] If not stated otherwise, cells were harvested after incubation for 16 h and subjected to SDS-PAGE and western blotting. The RNA interference experiment was performed with CSN5 stealth siRNA (#HSS116986) and stealth negative control siRNA (#12935-400) (Invitrogen), which were transfected at 10 nM into HCT116 cells using […] (Qiagen) according to the manufacturer's protocols. Seventy-two hours after transfection, cells were harvested and subjected to SDS-PAGE and western blotting (see Supplementary Fig. 7 for all western blottings performed). A standardized CellTiter-Glo Assay (Promega #G7570) based on the quantification of ATP was applied according to the manufacturer's protocol to measure the amount of viable cells in culture. In brief, cells were seeded into 384-well plates at optimal density for each cell line. After 4 h, compounds were added at different concentrations in growth medium and incubated for another 72 h in a humidifying chamber at 37 °C and 5% CO2. Eventually, equal amounts of CellTiter-Glo reagent were added directly to the cells, incubated for 15 min and luminescence was recorded using PHERAstar plate reader (BMG LABTECH GmbH).

SU-DHL-1 cells [1] = assay: Cell viability assay (CellTiter-Glo), SU-DHL-1; type: cell-based, human
Procedure: as §1

SU-DHL-1 cells [2] = assay: Immunoblotting for PARP and caspase 3 in SU-DHL-1 cells; type: cell-based, human; conditions: SU-DHL-1, 1 μM, 24 h or 48 h
Procedure: Cells were maintained in a humidified incubator at 37 °C and 5% CO2. […] All cells were negatively tested for mycoplasma contamination either by the vendor or in house. […] If not stated otherwise, cells were harvested after incubation for 16 h and subjected to SDS-PAGE and western blotting. The RNA interference experiment was performed with CSN5 stealth siRNA (#HSS116986) and stealth negative control siRNA (#12935-400) (Invitrogen), which were transfected at 10 nM into HCT116 cells using […] (Qiagen) according to the manufacturer's protocols. Seventy-two hours after transfection, cells were harvested and subjected to SDS-PAGE and western blotting (see Supplementary Fig. 7 for all western blottings performed). […] Cells from longer compound incubations were also lysed in RIPA buffer, which allows the protein concentration to be determined by BCA Protein Assay Kit (Pierce). Proteins were separated by SDS-PAGE using 4-20% Tris-Glycine Gels (Invitrogen) and subsequently transferred to polyvinylidene difluoride membranes using a Trans-Blot Turbo System (BioRad). […] Horseradish peroxidase-conjugated secondary antibodies (1:3,000) were purchased from Promega AG and bound antibody was detected by enhanced chemiluminescence (Pierce). page 5: Supplementary Figure 5 a b 0 Cul1-Nedd8 Cul1-Nedd8 Cul1 -20 Cul1 Fbxo7 -40 Fbxo7 -60 Actin -80 Actin CDK6 -100 CDK6 […] […]

CC(C)n1nc(C(F)F)cc1C(=O)Nc1ccc([C@H]2[C@@H](O)CCCc3cncn32)c(-c2ccccc2)c1 [CSN5i-3, 3-(Difluoromethyl)-N-(6-((5S,6S)-6-hydroxy-6,7,8,9-tetrahydro-5H-imidazo[1,5-a]azepin-5-yl)-[1,1′-biphenyl]-3-yl)-1-isopropyl-1H-pyrazole-5-carboxamide]
IC50 (RPN11 (26S proteasome)): 53 ± 26 µM
AMAX (HCT116 cells): ≤ −95%
EC50 (SU-DHL-1 cells [1]; Homo sapiens, SU-DHL-1, 72 h, read-out: EC50 cell viability): 0.013 µM
AMAX (SU-DHL-1 cells [1]; SU-DHL-1 in vitro, 72 h): ≤ −95%
apoptosis markers (cleaved PARP, cleaved caspase 3) (SU-DHL-1 cells [2]): triggered the formation of cleaved PARP and cleaved caspase 3
